ChEMBL document CHEMBL1201862, “PubChem BioAssay data set” (2004)
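Compound exposure: 48 hours, 5 concentrations, 96-well plates. GI50 is the concentration that inhibits growth by half.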 The source made the active and inactive calls. No stated cut-off is given here; in the data, active = GI50 up to about 1.1 µM and inactive = higher.

What was measured:
Assay in all cases: NCI anticancer screen, dose series, 48 h
UO-31 = system: UO-31
RPMI-8226 = system: RPMI-8226
Malme-3M = system: Malme-3M
HL-60 = system: HL-60
NCI-H460 = system: NCI-H460
COLO 205 = system: COLO 205
HOP-62 = system: HOP-62
K562 = system: K562
ACHN = system: ACHN
CCRF-CEM = system: CCRF-CEM
OVCAR-3 = system: OVCAR-3
KM12 = system: KM12
SK-MEL-2 = system: SK-MEL-2
SK-OV-3 = system: SK-OV-3
SW-620 = system: SW-620
SF-268 = system: SF-268
CAKI-1 = system: CAKI-1

Measured: GI50

CC(=O)O[C@]1(C)OC(=O)[C@@H](CC(C)C)N1[N+](=O)[O-]
inactive: UO-31 > 100 µM | RPMI-8226 > 100 µM | Malme-3M > 100 µM | HL-60 > 100 µM | NCI-H460 > 100 µM | COLO 205 > 100 µM | HOP-62 > 100 µM | K562 > 100 µM | ACHN > 100 µM | CCRF-CEM > 100 µM | OVCAR-3 > 100 µM | KM12 > 100 µM | SK-MEL-2 > 100 µM | SK-OV-3 > 100 µM | SW-620 > 100 µM

CC1(C)OC(=O)C(=C2CC(c3ccccc3)c3ccccc32)C(=O)O1 (centres undefined)
inactive: UO-31 > 100 µM | RPMI-8226 > 100 µM | SF-268 > 100 µM | Malme-3M > 100 µM | HL-60 > 100 µM | NCI-H460 > 100 µM | COLO 205 > 100 µM | HOP-62 > 100 µM | K562 > 100 µM | CAKI-1 > 100 µM | ACHN > 100 µM | CCRF-CEM > 100 µM | OVCAR-3 > 100 µM | SK-OV-3 > 100 µM | SW-620 > 100 µM

O=c1nc2sc3ccc4ccccc4c3n2nc1-c1ccccc1
inactive: UO-31 22.3 µM | SF-268 37.3 µM | Malme-3M 21.4 µM | HL-60 > 100 µM | NCI-H460 22.1 µM | COLO 205 56.2 µM | HOP-62 26.7 µM | K562 > 100 µM | CAKI-1 31.1 µM | ACHN 27.8 µM | CCRF-CEM > 100 µM | OVCAR-3 19 µM | KM12 63.5 µM | SK-MEL-2 > 100 µM | SK-OV-3 36.1 µM | SW-620 32.5 µM

Cc1ccccc1NC(=O)C(=O)Cc1nc2ccccc2s1
inactive: UO-31 > 100 µM | SF-268 > 100 µM | Malme-3M > 100 µM | HL-60 > 100 µM | NCI-H460 > 100 µM | COLO 205 > 100 µM | HOP-62 > 100 µM | K562 > 100 µM | CAKI-1 > 100 µM | ACHN > 100 µM | CCRF-CEM > 100 µM | OVCAR-3 > 100 µM | KM12 > 100 µM | SK-MEL-2 > 100 µM | SK-OV-3 > 100 µM | SW-620 > 100 µM

COC(=O)c1ccccc1N1C(=O)Cc2ccccc2C1=O
inactive: UO-31 > 100 µM | RPMI-8226 > 100 µM | SF-268 55.1 µM | Malme-3M > 100 µM | COLO 205 > 100 µM | K562 > 100 µM | ACHN > 100 µM | OVCAR-3 35.6 µM | KM12 > 100 µM | SK-MEL-2 > 100 µM | SK-OV-3 42.9 µM | SW-620 > 100 µM

O=C(N/C(=C\c1ccc(F)cc1)c1nc2ccccc2[nH]1)c1ccccc1
inactive: UO-31 > 100 µM | RPMI-8226 > 100 µM | SF-268 > 100 µM | Malme-3M > 100 µM | NCI-H460 > 100 µM | COLO 205 > 100 µM | K562 > 100 µM | CAKI-1 > 100 µM | ACHN > 100 µM | CCRF-CEM > 100 µM | OVCAR-3 > 100 µM | KM12 > 100 µM | SK-MEL-2 > 100 µM | SK-OV-3 > 100 µM | SW-620 > 100 µM

COc1ccc(C2S/C(=C\c3cccc([N+](=O)[O-])c3)C(=O)N2NC(=O)Cc2ccccc2)cc1 (centres undefined)
inactive: UO-31 > 100 µM | RPMI-8226 > 100 µM | SF-268 > 100 µM | Malme-3M > 100 µM | HL-60 > 100 µM | NCI-H460 > 100 µM | COLO 205 > 100 µM | HOP-62 > 100 µM | K562 > 100 µM | CAKI-1 > 100 µM | ACHN > 100 µM | CCRF-CEM > 100 µM | KM12 > 100 µM | SK-MEL-2 > 100 µM | SK-OV-3 > 100 µM | SW-620 > 100 µM

COc1ccc(C(=O)C(C(=O)C(=O)Nc2nccs2)c2ccc(OC)cc2)cc1 (centres undefined)
inactive: UO-31 > 100 µM | RPMI-8226 > 100 µM | SF-268 > 100 µM | Malme-3M > 100 µM | NCI-H460 > 100 µM | COLO 205 > 100 µM | K562 > 100 µM | CAKI-1 > 100 µM | ACHN > 100 µM | CCRF-CEM > 100 µM | OVCAR-3 > 100 µM | KM12 > 100 µM | SK-MEL-2 > 100 µM | SK-OV-3 > 100 µM | SW-620 > 100 µM

C[C@@H]1CC(=O)C2CCCC1C2=O (some centres undefined)
inactive: UO-31 > 100 µM | RPMI-8226 > 100 µM | SF-268 > 100 µM | Malme-3M > 100 µM | HL-60 > 100 µM | NCI-H460 > 100 µM | COLO 205 45.7 µM | HOP-62 > 100 µM | CAKI-1 > 100 µM | ACHN > 100 µM | CCRF-CEM > 100 µM | OVCAR-3 > 100 µM | KM12 > 100 µM | SK-OV-3 > 100 µM | SW-620 > 100 µM

O=C(CCC(=O)Nc1cccc(C(F)(F)F)c1)CC(=O)c1ccc2ccccc2c1
inactive: UO-31 > 100 µM | RPMI-8226 > 100 µM | SF-268 > 100 µM | Malme-3M > 100 µM | HL-60 > 100 µM | NCI-H460 > 100 µM | COLO 205 > 100 µM | K562 > 100 µM | CAKI-1 > 100 µM | ACHN > 100 µM | CCRF-CEM > 100 µM | OVCAR-3 > 100 µM | KM12 > 100 µM | SK-MEL-2 > 100 µM | SK-OV-3 > 100 µM | SW-620 > 100 µM

COc1c(C(=O)O)oc2c(OC)cccc12
inactive: UO-31 > 100 µM | RPMI-8226 > 100 µM | SF-268 > 100 µM | Malme-3M > 100 µM | HL-60 > 100 µM | NCI-H460 > 100 µM | COLO 205 > 100 µM | HOP-62 > 100 µM | K562 > 100 µM | ACHN > 100 µM | CCRF-CEM > 100 µM | OVCAR-3 > 100 µM | KM12 > 100 µM | SK-MEL-2 > 100 µM | SK-OV-3 > 100 µM | SW-620 > 100 µM

CC1C=CC(C)C2(O)C(=O)NC(O)C12 (centres undefined)
inactive: UO-31 > 100 µM | RPMI-8226 > 100 µM | SF-268 > 100 µM | Malme-3M > 100 µM | HL-60 > 100 µM | NCI-H460 > 100 µM | COLO 205 > 100 µM | HOP-62 > 100 µM | K562 > 100 µM | CAKI-1 > 100 µM | ACHN > 100 µM | CCRF-CEM > 100 µM | KM12 > 100 µM | SK-MEL-2 > 100 µM | SK-OV-3 > 100 µM | SW-620 > 100 µM

COc1ccc(C2Cc3cc(OC)c(OC)c(OC)c3C2)cc1 (centres undefined)
inactive: UO-31 21.3 µM | RPMI-8226 18.8 µM | SF-268 47.1 µM | Malme-3M 22.8 µM | NCI-H460 46.6 µM | COLO 205 66.7 µM | HOP-62 97.5 µM | K562 20.2 µM | CAKI-1 36.9 µM | ACHN 39.1 µM | CCRF-CEM 32.6 µM | OVCAR-3 38.8 µM | KM12 23 µM | SK-MEL-2 30.6 µM | SK-OV-3 > 100 µM | SW-620 29.4 µM
